| melting point | SMILES |
| --- | --- |
| 185 to 187 °C | CN(Cc1cc2ccccc2n1C)C(=O)/C=C/c1ccc(N2C(=O)CCC2=O)nc1 |
| 225 to 227 °C | CN(Cc1cc2ccccc2n1C)C(=O)/C=C/c1ccc(NC(=O)CCC(N)=O)nc1 |
| 206 to 209 °C (dec.) | CN(Cc1cc2ccccc2n1C)C(=O)/C=C/c1ccc(NC(=O)CCC(=O)N2CCOCC2)nc1 |

Source: patent US7790709B2 (dated 2010)
